Results reported in PubChem BioAssay (NCI).
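Briefly, cells in 96-well plates were exposed to five compound concentrations for 48 h, and endpoints were estimated by linear interpolation. GI50 is the concentration that inhibits growth by half. Definition used: TGI = concentration required for complete inhibition of growth.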

Key:
Assay in all cases: growth of human tumour cells (NCI), 48 h
NCI-H460 lung = system: NCI-H460 lung
HCC-2998 colon = system: HCC-2998 colon
HCT-15 colon = system: HCT-15 colon
HCT-116 colon = system: HCT-116 colon
HL-60(TB) leukemia = system: HL-60(TB) leukemia
EKVX NSCLC = system: EKVX NSCLC
ACHN renal = system: ACHN renal
SF-268 CNS = system: SF-268 CNS
K-562 leukemia = system: K-562 leukemia
HT29 colon = system: HT29 colon
UO-31 renal = system: UO-31 renal
LOX IMVI melanoma = system: LOX IMVI melanoma
RXF 393 renal = system: RXF 393 renal
TK-10 renal = system: TK-10 renal
HS 578T breast = system: HS 578T breast
OVCAR-5 ovarian = system: OVCAR-5 ovarian
DU-145 prostate = system: DU-145 prostate
SK-MEL-28 melanoma = system: SK-MEL-28 melanoma
SN12C renal = system: SN12C renal
MDA-MB-435 = system: MDA-MB-435
HOP-92 NSCLC = system: HOP-92 NSCLC
SF-295 CNS = system: SF-295 CNS
CAKI-1 renal = system: CAKI-1 renal
SF-539 CNS = system: SF-539 CNS
M14 melanoma = system: M14 melanoma
UACC-257 melanoma = system: UACC-257 melanoma
U251 CNS = system: U251 CNS
NCI-H226 lung = system: NCI-H226 lung
A549 NSCLC = system: A549 NSCLC
OVCAR-4 ovarian = system: OVCAR-4 ovarian
SK-OV-3 ovarian = system: SK-OV-3 ovarian
CCRF-CEM leukemia = system: CCRF-CEM leukemia
SR leukemia = system: SR leukemia
OVCAR-8 ovarian = system: OVCAR-8 ovarian
HOP-62 NSCLC = system: HOP-62 NSCLC
A498 renal = system: A498 renal
T-47D breast = system: T-47D breast
MCF7 breast = system: MCF7 breast
UACC-62 melanoma = system: UACC-62 melanoma
MALME-3M melanoma = system: MALME-3M melanoma
SK-MEL-2 melanoma = system: SK-MEL-2 melanoma
NCI-H23 lung = system: NCI-H23 lung
KM12 colon = system: KM12 colon
COLO 205 colon = system: COLO 205 colon
786-0 renal = system: 786-0 renal
OVCAR-3 ovarian = system: OVCAR-3 ovarian
SW-620 colon = system: SW-620 colon
BT-549 breast = system: BT-549 breast
IGROV1 ovarian = system: IGROV1 ovarian
SNB-75 CNS = system: SNB-75 CNS
PC-3 prostate = system: PC-3 prostate
NCI-H522 lung = system: NCI-H522 lung
SNB-19 CNS = system: SNB-19 CNS
MOLT-4 leukemia = system: MOLT-4 leukemia

SMILES: COc1ccccc1N1CCN(C2=NN=C(c3cccc(Cl)c3)c3ccccc3C2)CC1
- GI50 (NCI-H460 lung): 351 nM
- TGI (NCI-H460 lung): 1940 nM
- GI50 (HCC-2998 colon): 324 nM
- TGI (HCC-2998 colon): 2270 nM
- GI50 (HCT-15 colon): 343 nM
- TGI (HCT-15 colon): > 34.2 µM
- GI50 (HCT-116 colon): 337 nM
- TGI (HCT-116 colon): > 36.6 µM
- GI50 (HL-60(TB) leukemia): 285 nM
- TGI (HL-60(TB) leukemia): 920 nM
- GI50 (EKVX NSCLC): 556 nM
- TGI (EKVX NSCLC): > 100 µM
- GI50 (ACHN renal): 554 nM
- TGI (ACHN renal): > 100 µM
- GI50 (SF-268 CNS): 566 nM
- TGI (SF-268 CNS): > 100 µM
- GI50 (K-562 leukemia): 336 nM
- TGI (K-562 leukemia): > 100 µM
- GI50 (HT29 colon): 337 nM
- GI50 (UO-31 renal): 708 nM
- TGI (UO-31 renal): > 100 µM
- GI50 (LOX IMVI melanoma): 418 nM
- TGI (LOX IMVI melanoma): > 100 µM
- GI50 (RXF 393 renal): 270 nM
- TGI (RXF 393 renal): 2760 nM
- GI50 (TK-10 renal): 2320 nM
- TGI (TK-10 renal): > 43.2 µM
- GI50 (HS 578T breast): 332 nM
- GI50 (OVCAR-5 ovarian): 498 nM
- TGI (OVCAR-5 ovarian): > 37.2 µM
- GI50 (DU-145 prostate): 367 nM
- TGI (DU-145 prostate): 2370 nM
- GI50 (SK-MEL-28 melanoma): 2470 nM
- TGI (SK-MEL-28 melanoma): > 100 µM
- GI50 (SN12C renal): 474 nM
- TGI (SN12C renal): > 100 µM
- GI50 (MDA-MB-435): 206 nM
- TGI (MDA-MB-435): 497 nM
- GI50 (HOP-92 NSCLC): 1000 nM
- TGI (HOP-92 NSCLC): > 22.2 µM
- GI50 (SF-295 CNS): 334 nM
- TGI (SF-295 CNS): 3.44 µM
- GI50 (CAKI-1 renal): 410 nM
- TGI (CAKI-1 renal): 13.5 µM
- GI50 (SF-539 CNS): 277 nM
- TGI (SF-539 CNS): 847 nM
- GI50 (M14 melanoma): 316 nM
- GI50 (UACC-257 melanoma): 2370 nM
- TGI (UACC-257 melanoma): > 100 µM
- GI50 (U251 CNS): 383 nM
- TGI (U251 CNS): > 100 µM
- GI50 (NCI-H226 lung): 1160 nM
- TGI (NCI-H226 lung): > 36.3 µM
- GI50 (A549 NSCLC): 425 nM
- TGI (A549 NSCLC): > 100 µM
- GI50 (OVCAR-4 ovarian): 1190 nM
- TGI (OVCAR-4 ovarian): > 100 µM
- GI50 (SK-OV-3 ovarian): 637 nM
- TGI (SK-OV-3 ovarian): 97.4 µM
- GI50 (CCRF-CEM leukemia): 333 nM
- TGI (CCRF-CEM leukemia): > 100 µM
- GI50 (SR leukemia): 260 nM
- TGI (SR leukemia): > 100 µM
- GI50 (OVCAR-8 ovarian): 438 nM
- TGI (OVCAR-8 ovarian): > 100 µM
- GI50 (HOP-62 NSCLC): 508 nM
- TGI (HOP-62 NSCLC): > 65.8 µM
- GI50 (A498 renal): 350 nM
- TGI (A498 renal): 2780 nM
- GI50 (T-47D breast): 1130 nM
- TGI (T-47D breast): > 100 µM
- GI50 (MCF7 breast): 351 nM
- TGI (MCF7 breast): > 38 µM
- GI50 (UACC-62 melanoma): 509 nM
- TGI (UACC-62 melanoma): > 100 µM
- GI50 (MALME-3M melanoma): 630 nM
- TGI (MALME-3M melanoma): > 100 µM
- GI50 (SK-MEL-2 melanoma): 743 nM
- TGI (SK-MEL-2 melanoma): > 45.4 µM
- GI50 (NCI-H23 lung): 571 nM
- TGI (NCI-H23 lung): > 100 µM
- GI50 (KM12 colon): 380 nM
- TGI (KM12 colon): > 100 µM
- GI50 (COLO 205 colon): 337 nM
- TGI (COLO 205 colon): 1650 nM
- GI50 (786-0 renal): 542 nM
- TGI (786-0 renal): 13.2 µM
- GI50 (OVCAR-3 ovarian): 282 nM
- TGI (OVCAR-3 ovarian): 793 nM
- GI50 (SW-620 colon): 439 nM
- TGI (SW-620 colon): > 100 µM
- GI50 (BT-549 breast): 373 nM
- TGI (BT-549 breast): > 30.5 µM
- GI50 (IGROV1 ovarian): 474 nM
- TGI (IGROV1 ovarian): > 100 µM
- GI50 (SNB-75 CNS): 491 nM
- TGI (SNB-75 CNS): 20.3 µM
- GI50 (PC-3 prostate): 443 nM
- TGI (PC-3 prostate): > 33.9 µM
- GI50 (NCI-H522 lung): 270 nM
- GI50 (SNB-19 CNS): 420 nM
- TGI (SNB-19 CNS): > 100 µM
- GI50 (MOLT-4 leukemia): 356 nM
- TGI (MOLT-4 leukemia): > 100 µM
